Reference: PubChem BioAssay AID1963841 (Molecular Pharmacology Branch, DTP, NCI, 2024)
Several values for one entry are separate records, joined by “and”; a condition that tells them apart may be missing. Identical values can stand only once.

Test system: 439559-082-T-J2-PDC spheroid viability
Assay: Anticancer human tumor 439559-082-T-J2-PDC patient-derived colon adenocarcinoma cell line growth inhibition [POLQ]
Settings: spheroids with HUVEC and MSC; for viability, T/C: stronger effect = lower value
Description: Multicellular complex tumor spheroid response to Polymerase (POL) inhibitors (novobiocin, ART-558, RP6685) in combination with a variety of drugs and investigational agents in selected tumor cell lines
The POL inhibitors (novobiocin, ART-558, and RP6685) were evaluated both individually and in combination with standard of care and investigational anticancer small molecules within a complex spheroid model of solid tumors. . Complex spheroids include a stromal component modeled by human endothelial cells (HUVEC) and fibroblasts modeled by human mesenchymal stem cells (MSCs). The concentration ranges selected for each drug and investigational agent were based upon clinically achievable concentrations if the clinical Cmax of the agent was known.
Compounds. The drugs and investigational agents: novobiocin (NSC847541), ART-558 (NSC835418), RP-6685 (NSC848927), peposertib (NSC802822), ceralasertib (NSC780249), elimusertib (NSC800525), camonsertib (NSC841442), AZD-1390 (NSC803789), olaparib (NSC753686), talazoparib (NSC767125), rucaparib (NSC756644), sotorasib (NSC818433), MRTX-1133 (NSC836407), SN-38 (NSC673596), topotecan (NSC609699), epotoside (NSC141540), doxorubicin (NSC123127), gemcitabine (NSC613327), 5-fluorouracil (NSC19893), paclitaxel (NSC125973), vemurafenib (NSC761431), MSA-2 (NSC828583), SN-011 (NSC837082), adavosertib (NSC754352), prexasertib (NSC758257), carboplatin (NSC241240) and oxaliplatin (NSC266046), were obtained from the National Cancer Institute (NCI) Developmental Therapeutics Program Chemical Repository (21). The FDA-approved anticancer drug set is available from the Developmental Therapeutics Program at https://dtp.cancer.gov/organization/dscb/obtaining/. […] The stock solutions were prepared in dimethyl sulfoxide (DMSO, Sigma-Aldrich, St. Louis, MO, cat. D2650), except for the platinum compounds which were prepared in saline (Quality Biological, Gaithersburg, MD, cat. 114-055-101), at 800-fold the tested concentration and stored at -70 degrees C prior to their use. All drugs and investigational agents were tested over a range starting from a high concentration at or near the clinical Cmax and decreasing in half-log increments. If the clinical Cmax for an agent had not been determined, the highest concentration tested was 10 microM, except for SN-38, which was tested at a high concentration of 1 microM.
Cell Culture. All cells were maintained in an incubator at 37 degrees C and 5% CO2 with 95% humidity. The PDC lines were cultured according to standard operating procedures established by the NCI PDMR (https://pdmr.cancer.gov). Table 3 of the manuscript, lists the cell lines along with the number of the three cell types plated to form the mct-spheroids and media for tumor cell growth. After thawing, all PDC lines, except 997537-175-T-J1-PDC and 415267-285-R-J2-PDC, were cultured in Matrigel-coated flasks prepared with a working solution of 1X Ham's F-12 nutrient mix, without supplementation (Thermo Fisher Scientific, cat. 11765054), 100 U/mL penicillin-streptomycin (Thermo Fisher Scientific, cat. 15140122), and 2.5% Matrigel (Corning Inc., Corning, NY, cat. 354248) for the first three passages. The two PDC lines 997537-175-T-J1-PDC and 415267-285-R-J2-PDC were cultured on uncoated flasks. The 857933-349-R-J2-PDC line was cultured in 6C/Colon 1B media containing advanced DMEM/F-12 (Thermo Fisher Scientific, cat. 12634028), 10 mM HEPES (Thermo Fisher Scientific, cat. 15630080), 1X GlutaMAX supplement (Thermo Fisher Scientific, cat. 35050061), 0.1 mg/mL primocin (InvivoGen, San Diego, CA, cat. ant-pm-2), 10% defined fetal bovine serum, heat inactivated (HyClone Laboratories Inc., Logan, UT, cat. SH30070.03HI), 50% L-WRN conditioned media (ATCC, cat. CRL-3276), 1.25 mM N-Acetyl-L-cysteine (Sigma-Aldrich, cat. A9165), 10 mM nicotinamide (Sigma-Aldrich, cat. N0636), 1X B-27 supplement (Thermo Fisher Scientific, cat. 17504044), 1X N-2 supplement (Thermo Fisher Scientific, cat. […]
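Also: spheroids exposed to compounds for seven days before readout.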
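For viability, T/C in this document: 100% = DMSO vehicle control viability.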

Nc1ccc(C#CCN(C(=O)Cc2ncc(C(F)(F)F)cc2C(F)(F)F)c2ccc(F)cc2)nn1
viability, T/C (compound 0.0316 µM): 96.1% [middle of 13 runs]
viability, T/C (compound 0.1 µM): 97.8% [middle of 13 runs]
viability, T/C (compound 0.316 µM): 96% [middle of 13 runs]
viability, T/C (compound 1 µM): 100% [middle of 13 runs]
viability, T/C (compound 3.16 µM): 99.5% [middle of 13 runs]
IC50 (compound alone, run of 12/05/2023): > 10 µM

COc1cc(C2c3cc4c(cc3C(OC3OC5COC(C)OC5C(O)C3O)C3COC(=O)C23)OCO4)cc(OC)c1O (stereo not given) + Nc1ccc(C#CCN(C(=O)Cc2ncc(C(F)(F)F)cc2C(F)(F)F)c2ccc(F)cc2)nn1
IC50 (curve of first compound, second compound 0.0316 µM): > 10 µM
IC50 (curve of first compound, second compound 0.1 µM): > 10 µM
IC50 (curve of first compound, second compound 0.316 µM): > 10 µM
IC50 (curve of first compound, second compound 1 µM): > 10 µM
IC50 (curve of first compound, second compound 3.16 µM): > 10 µM
IC50 (curve of first compound, second compound 10 µM): > 10 µM
viability, T/C (second compound 0.0316 µM, first compound 0.0316 µM): 89.8%
viability, T/C (second compound 0.0316 µM, first compound 0.1 µM): 110%
viability, T/C (second compound 0.0316 µM, first compound 0.316 µM): 85.5%
viability, T/C (second compound 0.0316 µM, first compound 1 µM): 79.4%
viability, T/C (second compound 0.0316 µM, first compound 3.16 µM): 68%
viability, T/C (second compound 0.0316 µM, first compound 10 µM): 71.3%
viability, T/C (second compound 0.1 µM, first compound 0.0316 µM): 86.2%
viability, T/C (second compound 0.1 µM, first compound 0.1 µM): 94.3%
viability, T/C (second compound 0.1 µM, first compound 0.316 µM): 84.2%
viability, T/C (second compound 0.1 µM, first compound 1 µM): 85.5%
viability, T/C (second compound 0.1 µM, first compound 3.16 µM): 86.8%
viability, T/C (second compound 0.1 µM, first compound 10 µM): 81.7%
viability, T/C (second compound 0.316 µM, first compound 0.0316 µM): 99.5%
viability, T/C (second compound 0.316 µM, first compound 0.1 µM): 106%
viability, T/C (second compound 0.316 µM, first compound 0.316 µM): 93.2%
viability, T/C (second compound 0.316 µM, first compound 1 µM): 84.1%
viability, T/C (second compound 0.316 µM, first compound 3.16 µM): 80.6%
viability, T/C (second compound 0.316 µM, first compound 10 µM): 88%
viability, T/C (second compound 1 µM, first compound 0.0316 µM): 104%
viability, T/C (second compound 1 µM, first compound 0.1 µM): 93.5%
viability, T/C (second compound 1 µM, first compound 0.316 µM): 92.6%
viability, T/C (second compound 1 µM, first compound 1 µM): 91.5%
viability, T/C (second compound 1 µM, first compound 3.16 µM): 88.7%
viability, T/C (second compound 1 µM, first compound 10 µM): 70.6%
viability, T/C (second compound 3.16 µM, first compound 0.0316 µM): 101%
viability, T/C (second compound 3.16 µM, first compound 0.1 µM): 109%
viability, T/C (second compound 3.16 µM, first compound 0.316 µM): 78.9%
viability, T/C (second compound 3.16 µM, first compound 1 µM): 84.8%
viability, T/C (second compound 3.16 µM, first compound 3.16 µM): 76%
viability, T/C (second compound 3.16 µM, first compound 10 µM): 75.9%
viability, T/C (second compound 10 µM, first compound 0.0316 µM): 97.5%
viability, T/C (second compound 10 µM, first compound 0.1 µM): 84.4%
viability, T/C (second compound 10 µM, first compound 0.316 µM): 77.6%
viability, T/C (second compound 10 µM, first compound 1 µM): 86.2%
viability, T/C (second compound 10 µM, first compound 3.16 µM): 80%
viability, T/C (second compound 10 µM, first compound 10 µM): 70%

CNCc1ccc(-c2[nH]c3cc(F)cc4c3c2CCNC4=O)cc1
viability, T/C (compound 0.0316 µM): 95.3% and 101% and 103%
viability, T/C (compound 0.1 µM): 100% and 103% and 95.7%
viability, T/C (compound 0.316 µM): 102% and 96.3% and 92.9%
viability, T/C (compound 1 µM): 98.9% and 111% and 95.9%
viability, T/C (compound 3.16 µM): 108% and 124% and 107%
viability, T/C (compound 10 µM): 94.3% and 101% and 108%
IC50 (curve of compound): > 10 µM
